Tests used:
human NCX1 [1] = biological target: T1, human NCX1 (Homo sapiens (Human), UniProt P32418); assay: Inhibition of Ca2+ influx into cells (NCX1 reverse mode), FLIPR Fluo-4 assay; type: cell-based; conditions: inhibition of NCX1 in reverse mode (Ca2+ influx into cells); read-out: NCX1rv IC50
Description: (§1) The sodium/calcium exchanger NCX1 can transport calcium ions and sodium ions through the cell membrane. The transport is an exchange of Ca^2+and Na^+in two directions depending on membrane potential and ion gradients. At the first direction, named “forward mode” or “calcium export mode”, Ca^2+is transported out of the cell and Na^+ is transported into the cell. At the other direction, named “reverse mode” or “calcium import mode”, the transport directions are vice versa. The effect of the compounds of the invention on NCX1 was determined in CHO cells stably expressing human NCX1 (gene symbol SLC8A1; cf. WO 2009/115238). The assay is based on the monitoring of intracellular Ca^2+concentrations using a calcium-sensitive fluorescence dye which is detected by means of a FLIPR device (Fluorimetric Imaging Plate Reader, Molecular Devices).
Assay Technology—Reverse Mode
The assay is based on the monitoring of intracellular Ca^2+concentrations using the calcium-sensitive dye Fluo-4. CHO cells expressing NCX1 were loaded with the dye by means of the acetoxymethyl ester Fluo-4 AM (Invitrogen, F14202), which is cleaved intracellularly by esterase activity to yield the charged species of free Fluo-4. After an preincubation period with the test compound, Gramicidine (Sigma, G5002) was added. Gramicidine is an ionophor for Na^+ions mediating an increase of intracellular Na^+ions. Consequently, intracellular Na^+ions are exchanged against extracellular Ca^2+ions (Ca^2+influx, reverse mode). The intracellular elevation of Ca^2+ ions was detected by measuring the fluorescence of Fluo-4 at a wavelength of 520 nm by a FLIPR device.
Briefly, for the reverse mode transport assay 18000 cells per well were seeded into a 96 well microplate (Corning COSTAR 3904) and incubated overnight in culture medium (1× Nut Mix F12 (Ham) (Gibco, 21765-029); 10% (v/v) fetal calf serum (PAA Gold, A15-649); 450 μg/ml Geneticin (Gibco, 10131-027)). A total volume of 100 μl medium per well was used. For the preparation of the FLIPR assay, the culture medium was removed from the plates and 100 μl of dye solution (2 μM Fluo-4 AM; 0.02% (v/v) Pluronic F-127 (20%, Invitrogen, P3000MP); 0.1% (v/v) bovine albumin solution (30% (v/v), Sigma, A9205) in assay buffer (133.8 mM NaCl (Sigma, S5886); 4.7 mM KCl (Sigma, P3911); 1.25 mM MgCl2 (Merck, 1.05833.0250); 3.5 mM CaCl2 (Merck, 1.02083.0250); 5 mM glucose (Sigma, G7021); 10 mM Hepes (Sigma, H4034); 0.01% (v/v) Pluronic F-127 (5%, Sigma, P2443); 2.5 mM Probenecid (Maybridge, SB00915EB); pH 7.4)) were added into each well. The plates were incubated in the dark at room temperature for 80 min. After the incubation period, the dye solution was removed and the wells were washed with 100 μl of assay buffer. Then 80 μl of a solution of the test compound in assay buffer in different concentrations were added into the wells. The plates were incubated at 16° C. for 45 min. Meanwhile a 60 μM solution of Gramicidine in assay buffer (4° C.) was prepared and stored in the wells of a 96 well microplate (96 well microplate, polypropylene, U-shape (Greiner Bio-One, 650201)) at 4° C. until measurement was started. The fluorescence monitoring was performed at 240 measuring points with measurement intervals of 2 sec. After the fifth measuring point, 40 μl of the Gramicidine solution were added to each well of the assay plates to give a final Gramicidine concentration of 20 μM. For the determination of the IC50 values the minimal fluorescence value was subtracted from the maximal fluorescence value for all measuring points. The calculation of the IC50 values via the percentage inhibitions of Ca^2+influx into cells (reverse mode) effected by the test compound was performed in Biost@t Speed 2.0.

Sprague-Dawley rats = assay: In vivo method for determining the effect on heart contractility (left ventricular dp/dtmax) in anesthetized rats; conditions: rat, versus solvent control; for change in vivo at 0.1 mg/kg / change in vivo at 0.3 mg/kg / change in vivo at 1 mg/kg: iv, i.v. bolus injection, read-out: Contractility increase (%); for Contractility increase (%): i.v. infusion
Method: B) In vivo Method for Determining the Effect on Heart Contractility Adult male Sprague-Dawley rats (Harlan […], Germany) weighing 340 to 370 g were anesthetized with pentobarbital (100 mg/kg i.p.) and ventilated with a mixture of oxygen (40%) and room air (60%) at a tidal volume of 1 ml/100 g at 60 breaths/min. Body temperature was maintained at 36.5±0.3° C. with a heating lamp and was monitored with a rectal thermo sensor. Systemic blood pressure was measured in the left carotid artery using a pressure transducer (Combitrans; B. Braun Melsungen AG, Melsungen, Germany) connected to a DC-bridge-amplifier (PLUGSYS/ADC Type 663; Harvard Apparatus GmbH, March-Hugstetten, Germany). The electrocardiogram was measured as lead II via subcutaneously placed electrodes connected to a Heart-Rate-Module ([…] Type 669; Harvard Apparatus GmbH, March-Hugstetten, Germany). A micro-tip catheter (2 French, SPR-320; Millar Instruments, Houston, Tex., USA) was placed via the right carotid artery into the left ventricle, and the left ventricular pressure (LVP) and the end diastolic pressure (EDP) were continuously measured. Registration of the hemodynamic data was performed via an analog digital converter by a personal computer using Notocord software (HEM version 3.5). Left ventricular contractility (dp/dtmax) and relaxation (dp/dtmin) were calculated from the LVP signal. For intravenous administration of the test compounds, the left jugular vein was prepared and a PP-50 catheter was inserted. Test compounds were administered either by intravenous bolus injection or by intravenous infusion by means of an infusion pump (Unita; B. Braun Melsungen AG, Melsungen, Germany). […] In a typical experiment, several dosages of the test compound were administered subsequently at increasing doses. Statistical significance of the data obtained with drug vs control experiments, in which solvent was administered, was evaluated with the 2-sided ANOVA test (program Everstat). Increases in left ventricular contractility (percent increase) by example compounds are given in Table 3 in comparison to control experiments in which solvent was administered.

human NCX1 [2] = biological target: T1, human NCX1; assay: Inhibition of Ca2+ efflux out of cells (NCX1 forward mode), FLIPR assay; type: cell-based; conditions: CHO cells stably expressing human NCX1, Ionomycin 2 μM, read-out: NCX1fw IC50
Description: as §1
Assay Technology—Forward Mode
The assay is based on the monitoring of intracellular Ca^2+concentrations using the PBX Calcium Assay Kit from BD (Becton, Dickinson and Company) with calcium indicator dye 51-9000177BKa (BD, 640177), CHO cells expressing NCX1 were loaded with the dye, and after a preincubation period with the test compound, lonomycin (Calbiochem, 407950) was added. Ionomycin is an ionophor for Ca^2+ions mediating an increase of intracellular Ca^2+ions. Consequently, intracellular Ca^2+ions are exchanged against extracellular Na^+ions (Ca^2+efflux, forward mode). The decrease of intracellular Ca^2+ions was detected by measuring the fluorescence of the calcium indicator dye at a wavelength of 520 nm by a FLIPR device.
Briefly, similarly as for the reverse mode, for the forward mode transport assay 18000 cells per well were seeded into a 96 well microplate (Corning COSTAR 3904) and incubated overnight in culture medium (cf. above). A total volume of 100 μl medium per well was used. For the preparation of the FLIPR assay, the culture medium was removed from the plates and 100 μl of assay buffer (133.8 mM NaCl (Sigma, S5886); 4.7 mM KCl (Sigma, P3911); 1.25 mM MgCl2 (Merck, 1.05833.0250); 3.5 mM CaCl2 (Merck, 1.02083.0250); 5 mM glucose (Sigma. G7021); 10 mM Hepes (Sigma, H4034); pH 7.4)) were added to each well in a washing step. Assay buffer was removed, and 100 μl of a solution of the test compound in assay buffer in different concentrations were added into the wells. Further, 100 μl of dye solution (0.09% (v/v) calcium indicator dye, 9.1% (v/v) signal enhancer (from PBX Calcium Assay Kit); in assay buffer) were added into each well. The plates were incubated in the dark at room temperature for 60 min. Meanwhile a 10 μM solution of lonomycin in assay buffer (additionally containing 0.05% fetal calf serum (cf. above); 4° C.) was prepared and stored in the wells of a 96 well microplate (96 well microplate, polypropylene, U-shape (Greiner Bio-One, 650201)). The fluorescence monitoring was performed at 60 measuring points with measurement intervals of 2 sec. After the fifth measuring point, 50 μl of the lonomycin solution were added to each well of the assay plate to give a final lonomycin concentration of 2 μM. For the determination of the IC50 values the minimal fluorescence value was subtracted from the maximal fluorescence value for the fifteenth to fifty-fifth measuring points. The calculation of the IC50 values via the percentage inhibitions of Ca^2+efflux out of cells (forward mode) effected by the test compound was performed in Biost@t Speed 2.0. “NCX1fw IC50” in Table 2 means the IC50 value for inhibition of NCX1 in forward mode (in μM (micromol/liter)).

T1 sequence (P32418 whole entry, looked up): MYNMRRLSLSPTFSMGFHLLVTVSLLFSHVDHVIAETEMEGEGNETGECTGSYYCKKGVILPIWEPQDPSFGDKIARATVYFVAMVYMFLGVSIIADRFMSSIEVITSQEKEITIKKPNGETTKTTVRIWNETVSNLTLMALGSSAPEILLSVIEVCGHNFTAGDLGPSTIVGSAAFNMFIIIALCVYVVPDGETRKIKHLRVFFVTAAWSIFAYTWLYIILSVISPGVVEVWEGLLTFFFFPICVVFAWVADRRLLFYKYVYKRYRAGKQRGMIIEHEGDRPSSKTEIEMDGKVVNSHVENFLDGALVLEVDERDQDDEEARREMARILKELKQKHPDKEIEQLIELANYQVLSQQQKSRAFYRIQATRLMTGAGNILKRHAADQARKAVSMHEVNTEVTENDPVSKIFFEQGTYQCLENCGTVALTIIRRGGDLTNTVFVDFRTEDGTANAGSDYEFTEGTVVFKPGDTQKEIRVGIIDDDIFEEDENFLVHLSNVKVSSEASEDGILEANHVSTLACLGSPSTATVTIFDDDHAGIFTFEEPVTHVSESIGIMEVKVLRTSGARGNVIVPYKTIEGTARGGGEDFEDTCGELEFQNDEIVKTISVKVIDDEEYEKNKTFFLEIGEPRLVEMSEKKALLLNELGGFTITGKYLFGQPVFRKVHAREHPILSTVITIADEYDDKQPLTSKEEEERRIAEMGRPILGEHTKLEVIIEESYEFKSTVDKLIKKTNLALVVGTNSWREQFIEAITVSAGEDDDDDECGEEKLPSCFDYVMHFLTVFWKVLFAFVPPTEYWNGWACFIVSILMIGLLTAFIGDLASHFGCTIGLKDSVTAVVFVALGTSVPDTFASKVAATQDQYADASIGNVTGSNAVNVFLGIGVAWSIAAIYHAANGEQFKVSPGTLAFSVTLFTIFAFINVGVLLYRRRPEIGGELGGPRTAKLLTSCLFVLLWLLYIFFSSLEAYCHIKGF

Work on “2-[2-(2,6-Dimethyl-phenyl)-chroman-6-yloxy]-thiazole-5-carboxylic acid [2-(2-oxo-imidazolidin-1-yl)-ethyl]-amide [compound 347]” yielded an IC50 (human NCX1 [1]) of 1500 nM.

`O=C(NC1CC1)c1cnc(Oc2ccc3c(c2)CCC(c2ccccc2)O3)s1` (stereo not drawn) [Example 315, 2-(2-Phenyl-chroman-6-yloxy)-thiazole-5-carboxylic acid cyclopropylamide] gave a change in vivo at 0.1 mg/kg (Sprague-Dawley rats) of 28%, a change in vivo at 0.3 mg/kg (Sprague-Dawley rats) of 41% and a change in vivo at 1 mg/kg (Sprague-Dawley rats) of 64%. The IC50 (human NCX1 [2]) was 3300 nM.

`Cc1ccccc1[C@@H]1CCc2cc(Oc3ncc(C(=O)NCCO)s3)ccc2O1` [Example 326, 2-((S)-2-o-Tolyl-chroman-6-yloxy)-thiazole-5-carboxylic acid (2-hydroxy-ethyl)-amide] showed an IC50 (human NCX1 [1]) of 100 nM, a change in vivo at 0.1 mg/kg (Sprague-Dawley rats) of 67% and a change in vivo at 0.3 mg/kg (Sprague-Dawley rats) of 105%. The change in vivo at 1 mg/kg (Sprague-Dawley rats) was 138% and the IC50 (human NCX1 [2]) was 200 nM.

In the case of `Cc1ccccc1C1CCc2cc(Oc3ncc(CNC(=O)CN4CCCC4=O)s3)ccc2O1` (stereo not drawn) [Example 327, 2-(2-Oxo-pyrrolidin-1-yl)-N-[2-(2-o-tolyl-chroman-6-yloxy)-thiazol-5-ylmethyl]-acetamide], the IC50 (human NCX1 [1]) is reported as 500 nM, the change in vivo at 0.1 mg/kg (Sprague-Dawley rats) is reported as 9% and the change in vivo at 0.3 mg/kg (Sprague-Dawley rats) is reported as 27%. The change in vivo at 1 mg/kg (Sprague-Dawley rats) was 55% and the IC50 (human NCX1 [2]) was 3000 nM.

In the case of `CCCNC(=O)c1cnc(Oc2ccc3c(c2)CCC(c2ccccc2C)O3)s1` (stereo not drawn) [Example 330, 2-(2-o-Tolyl-chroman-6-yloxy)-thiazole-5-carboxylic acid propylamide], the IC50 (human NCX1 [1]) is reported as 300 nM, the change in vivo at 0.1 mg/kg (Sprague-Dawley rats) is reported as 50% and the change in vivo at 0.3 mg/kg (Sprague-Dawley rats) is reported as 86%. It also gave a change in vivo at 1 mg/kg (Sprague-Dawley rats) of 161% and an IC50 (human NCX1 [2]) of 350 nM.

With `Cc1ccccc1C1CCc2cc(Oc3nc(C)c(C(=O)NCc4ccno4)s3)ccc2O1` (stereo not drawn) [Example 334, 4-Methyl-2-(2-o-tolyl-chroman-6-yloxy)-thiazole-5-carboxylic acid (isoxazol-5-ylmethyl)-amide] the IC50 (human NCX1 [1]) was 500 nM, the change in vivo at 0.1 mg/kg (Sprague-Dawley rats) was 19% and the change in vivo at 0.3 mg/kg (Sprague-Dawley rats) was 41%. For the same molecule, the change in vivo at 1 mg/kg (Sprague-Dawley rats) was 59% and the IC50 (human NCX1 [2]) was 2100 nM.

`Cc1ccc(F)cc1C1CCc2cc(Oc3ncc(C(=O)NCCO)s3)ccc2O1` (stereo not drawn) [Example 342, 2-[2-(5-Fluoro-2-methyl-phenyl)-chroman-6-yloxy]-thiazole-5-carboxylic acid (2-hydroxy-ethyl)-amide] was tested, and the IC50 (human NCX1 [1]) was 400 nM, the change in vivo at 0.1 mg/kg (Sprague-Dawley rats) was 38% and the change in vivo at 0.3 mg/kg (Sprague-Dawley rats) was 73%. For the same molecule, the change in vivo at 1 mg/kg (Sprague-Dawley rats) was 146% and the IC50 (human NCX1 [2]) was 700 nM.

`CCCNC(=O)c1cnc(Oc2ccc3c(c2)CCC(c2cc(F)ccc2C)O3)s1` (stereo not drawn) [Example 343, 2-[2-(5-Fluoro-2-methyl-phenyl)-chroman-6-yloxy]-thiazole-5-carboxylic acid propylamide] showed an IC50 (human NCX1 [1]) of 500 nM, a change in vivo at 0.1 mg/kg (Sprague-Dawley rats) of 20% and a change in vivo at 0.3 mg/kg (Sprague-Dawley rats) of 25%. The change in vivo at 1 mg/kg (Sprague-Dawley rats) was 39% and the IC50 (human NCX1 [2]) was 800 nM.

In the case of `Cc1ccccc1[C@@H]1CCc2cc(Oc3ncc(C(=O)NCCOP(=O)([O-])[O-])s3)ccc2O1.[Na+].[Na+]` [Example 345, Phosphoric acid mono-(2-{[2-((S)-2-o-tolyl-chroman-6-yloxy)-thiazole-5-carbonyl]-amino}-ethyl)ester disodium salt], the “Contractility increase (%)” value (Sprague-Dawley rats; 0.03 mg/kg/min) is reported as 32% and the “Contractility increase (%)” value (Sprague-Dawley rats; 0.1 mg/kg/min) is reported as 85%.

In the case of `Cc1csc(CCNCc2cnc(Oc3ccc4c(c3)CCC(c3ccccc3)O4)s2)n1` (stereo not drawn) [compound 151, [2-(4-Methyl-thiazol-2-yl)-ethyl]-[2-(2-phenyl-chroman-6-yloxy)-thiazol-5-ylmethy]-amine], the IC50 (human NCX1 [1]) is reported as 400 nM.

Molecule `CC[C@H](C)[C@H](NC(=O)c1cnc(Oc2ccc3c(c2)CCC(c2cccnc2)O3)s1)C(=O)O` (stereo partly drawn) [compound 270, (23,3S)-3-Methyl-2-{[2-(2-pyridin-3-yl-chroman-6-yloxy)-thiazole-5-carbonyl]-amino}-pentanoic acid] has an IC50 (human NCX1 [1]) of 12500 nM.

Reference: US8912224B2, “Substituted 2-(chroman-6-yloxy)-thiazoles and their use as pharmaceuticals” (Sanofi, priority 2011, dated 2014)
